Test results: patent publication US20030232994A1, “Bicyclic thiophene derivatives and combinatorial libraries thereof” (priority 2001, published 2003)

What follows are compounds tested on Streptococcus pyogenes (ATCC# 97-03 14289) (assay: Anti-microbial screen (growth inhibition, OD 570 nm)). Details: growth in Todd Hewitt Broth, plates read at 570 nm at 0 time and 4 hours, color corrected.
Type: cell-based
Method: Streptococcus pyogenes (ATCC# 97-03 14289) was grown in Todd Hewitt Broth (THB) (Difco Laboratories #0492-17-6) overnight until reaching an optical density of (OD=0.636 @ 570 nm) by reading 0.1 ml in a 96 well microtiter plate in a Molecular Devices Thermomax. This preparation was kept frozen as stocks in 30% v/v glycerol in 1.5 ml aliquots at −70^mC. until use. Prior to experiments, […] aliquots were thawed and diluted into 50 ml 2×THB. 60 ul of this dilution was added to 92 wells of microtiter plate. To three wells THB (200 ul) was added to serve as a blank and a sterility control. Test compounds in DMSO and appropriate concentrations of DMSO were added to Growth/Solvent Controls at 0 time. Plates were read at 0 time at 570 nm in the Molecular Devices plate reader to obtain compounds correction factors for insoluble or colored compounds. Plates were read again at 4 hours.
Percent inhibition is calculated with the following formulae: [drawing 4]
Color correct=O.D. 0 hr−Blank 0 hr)−(Solvent Control 0 hr−Blank 0 hr)
% Inhibition=100−O.D. test compound 4 hr−Blank 4 hr−color correct O.D. growth/solvent control 4 hr−Blank 4 hr

Row | Structure (SMILES) | % Inhibition
1 | CC(=O)Nc1cccc(C(=O)N2CCc3c(sc(NC(=O)c4ccccc4)c3C(=O)O)C2)c1 | 96.85%
2 | CC(=O)Nc1ccc(C(=O)N2CCc3c(sc(NC(=O)c4ccc(C(C)(C)C)cc4)c3C(=O)O)C2)cc1 | 71.69%
3 | CSc1ccccc1C(=O)N1CCc2c(sc(NC(=O)c3ccccc3)c2C(=O)O)C1 | 79.15%
4 | CCc1ccc(C(=O)Nc2sc3c(c2C(=O)O)CCN(C(=O)c2cn(C)c4ccccc24)C3)cc1 | 62.19%
5 | Cc1ccc(C(=O)N2CCc3c(sc(NC(=O)c4ccc5ccccc5c4)c3C(=O)O)C2)cn1 | 62.67%
6 | O=C(Nc1sc2c(c1C(=O)O)CCN(C(=O)c1cccc(Cl)c1)C2)c1ccccc1 | 94.99%
7 | COc1cccc(C(=O)Nc2sc3c(c2C(=O)O)CCN(C(=O)c2ccccc2SC)C3)c1 | 64.5%
8 | CCc1ccc(C(=O)Nc2sc3c(c2C(=O)O)CCN(C(=O)CCc2ccc(F)c(F)c2)C3)cc1 | 85.13%
9 | CC(C)(C)c1ccc(C(=O)Nc2sc3c(c2C(=O)O)CCN(C(=O)C2CCC2)C3)cc1 | 98.89%
10 | Cc1ccc(C(=O)N2CCc3c(sc(NC(=O)c4ccc(Cl)cc4)c3C(=O)O)C2)c(C)c1 | 63.51%
11 | CC(=O)Nc1cccc(C(=O)N2CCc3c(sc(NC(=O)c4ccc(C(C)(C)C)cc4)c3C(=O)O)C2)c1 | 92.01%
12 | Cn1cc(C(=O)N2CCc3c(sc(NC(=O)c4ccccc4)c3C(=O)O)C2)c2ccccc21 | 87.54%
13 | CC(C)(C)c1ccc(C(=O)Nc2sc3c(c2C(=O)O)CCN(C(=O)c2ccccc2C(F)(F)F)C3)cc1 | 80.87%
14 | O=C(CCC1CCCC1)Nc1sc2c(c1C(=O)O)CCN(C(=O)c1ccccc1C(F)(F)F)C2 | 72.86%
15 | O=C(Nc1sc2c(c1C(=O)O)CCN(C(=O)c1cc3ccccc3s1)C2)c1ccccc1 | 67.5%
16 | Cc1c(F)cccc1C(=O)N1CCc2c(sc(NC(=O)c3ccco3)c2C(=O)O)C1 | 72.33%
17 | O=C(Nc1sc2c(c1C(=O)O)CCN(C(=O)C1CCC1)C2)c1ccc(Cl)cc1 | 67.98%
18 | O=C(Nc1sc2c(c1C(=O)O)CCN(C(=O)c1cccc3ccccc13)C2)c1ccccc1Cl | 65.9%
19 | CCCc1ccc(C(=O)Nc2sc3c(c2C(=O)O)CCN(C(=O)CCc2ccc(F)c(F)c2)C3)cc1 | 89.36%
20 | CCOc1ncccc1C(=O)N1CCc2c(sc(NC(=O)c3ccc(CC)cc3)c2C(=O)O)C1 | 67.76%
21 | CCC(=O)N1CCc2c(sc(NC(=O)c3ccc4ccccc4c3)c2C(=O)O)C1 | 62.98%
22 | CCCc1ccc(C(=O)Nc2sc3c(c2C(=O)O)CCN(C(=O)c2ccccc2Cl)C3)cc1 | 86.38%
23 | Cc1ccc(C)c(CC(=O)N2CCc3c(sc(NC(=O)c4ccc(C(C)(C)C)cc4)c3C(=O)O)C2)c1 | 92.67%
24 | COc1cccc(C(=O)Nc2sc3c(c2C(=O)O)CCN(C(=O)c2ccccc2C(F)(F)F)C3)c1 | 73.59%
25 | CC(C)CC(=O)N1CCc2c(sc(NC(=O)c3ccc(C(C)(C)C)cc3)c2C(=O)O)C1 | 64.48%
26 | O=C(Nc1sc2c(c1C(=O)O)CCN(C(=O)c1cccc3ccccc13)C2)c1ccccc1 | 83.81%

Row | Structure (SMILES) | % Inhibition
27 | O=C(Nc1sc2c(c1C(=O)O)CCN(C(=O)c1ccc(F)cc1F)C2)c1ccc2ccccc2c1 | 66.41%
28 | O=C(O)c1c(NC(=O)C2CCCCC2)sc2c1CCN(C(=O)CCc1ccc(F)c(F)c1)C2 | 66.79%
29 | CC(C)CC(=O)N1CCc2c(sc(NC(=O)c3ccccc3)c2C(=O)O)C1 | 98.72%
30 | O=C(CCC1CCCC1)Nc1sc2c(c1C(=O)O)CCN(C(=O)/C=C/c1ccc(Cl)cc1)C2 | 67.51%
31 | O=C(Nc1sc2c(c1C(=O)O)CCN(C(=O)CCc1ccc(F)c(F)c1)C2)c1ccccc1 | 74.96%
32 | O=C(Nc1sc2c(c1C(=O)O)CCN(C(=O)c1ccccc1C(F)(F)F)C2)c1ccc(Cl)cc1 | 67.09%
33 | COc1ccc(OC)c(C(=O)N2CCc3c(sc(NC(=O)c4ccccc4)c3C(=O)O)C2)c1 | 73.56%
34 | CC(C)(C)c1ccc(C(=O)Nc2sc3c(c2C(=O)O)CCN(C(=O)c2ccoc2)C3)cc1 | 61.2%
35 | CSc1ccccc1C(=O)N1CCc2c(sc(NC(=O)c3ccc(Cl)cc3)c2C(=O)O)C1 | 71.86%
36 | CCc1ccc(C(=O)Nc2sc3c(c2C(=O)O)CCN(C(=O)c2cc(OC)ccc2OC)C3)cc1 | 80.21%
37 | CSc1ncccc1C(=O)N1CCc2c(sc(NC(=O)c3ccco3)c2C(=O)O)C1 | 62.35%
38 | Cc1c(F)cccc1C(=O)N1CCc2c(sc(NC(=O)c3ccccc3Cl)c2C(=O)O)C1 | 62.62%
39 | CC(C)(C)c1ccc(C(=O)Nc2sc3c(c2C(=O)O)CCN(C(=O)c2cccc4ccccc24)C3)cc1 | 73%
40 | O=C(Nc1sc2c(c1C(=O)O)CCN(C(=O)/C=C/c1ccccc1Cl)C2)c1c(F)cccc1F | 77.66%
41 | O=C(Nc1sc2c(c1C(=O)O)CCN(C(=O)CC1CCCC1)C2)c1ccc(Cl)cc1 | 82.59%
42 | O=C(Nc1sc2c(c1C(=O)O)CCN(C(=O)c1ccc(C(F)(F)F)cc1)C2)c1ccccc1 | 72.63%
43 | CCc1ccc(C(=O)Nc2sc3c(c2C(=O)O)CCN(C(=O)c2ccccc2C(F)(F)F)C3)cc1 | 86.11%
44 | CC(CC(=O)Nc1sc2c(c1C(=O)O)CCN(C(=O)c1cccc3ccccc13)C2)CC(C)(C)C (stereo not drawn) | 68.89%
45 | C/C=C/C(=O)N1CCc2c(sc(NC(=O)c3ccccc3)c2C(=O)O)C1 | 94.99%
46 | Cc1ccc(C)c(CC(=O)N2CCc3c(sc(NC(=O)c4ccc5ccccc5c4)c3C(=O)O)C2)c1 | 67.34%
47 | O=C(Nc1sc2c(c1C(=O)O)CCN(C(=O)c1ccsc1)C2)c1ccccc1Cl | 85.87%
48 | CC(C)(C)c1ccc(C(=O)Nc2sc3c(c2C(=O)O)CCN(C(=O)c2ccsc2)C3)cc1 | 82.18%
49 | COc1ccc(OC)c(C(=O)N2CCc3c(sc(NC(=O)c4ccc(C(C)(C)C)cc4)c3C(=O)O)C2)c1 | 77.92%
50 | CCC(C(=O)Nc1sc2c(c1C(=O)O)CCN(C(=O)/C=C/c1ccc(Cl)cc1)C2)c1ccccc1 (stereo not drawn) | 82.18%
51 | O=C(Nc1sc2c(c1C(=O)O)CCN(C(=O)c1ccccc1Cl)C2)c1ccco1 | 60.48%
52 | COc1ccc(OC)c(C(=O)N2CCc3c(sc(NC(=O)c4ccc(Cl)cc4)c3C(=O)O)C2)c1 | 70.67%

Row | Structure (SMILES) | % Inhibition
53 | COc1cccc2cc(C(=O)N3CCc4c(sc(NC(=O)c5ccccc5)c4C(=O)O)C3)oc12 | 76.35%
54 | CC(C)(C)c1ccc(C(=O)Nc2sc3c(c2C(=O)O)CCN(C(=O)c2ccc(C(F)(F)F)cc2)C3)cc1 | 59.57%
55 | CCCc1ccc(C(=O)Nc2sc3c(c2C(=O)O)CCN(C(=O)CC(C)C)C3)cc1 | 84.72%
56 | CCCc1ccc(C(=O)Nc2sc3c(c2C(=O)O)CCN(C(=O)C2CCCCC2)C3)cc1 | 66.83%
57 | O=C(Nc1sc2c(c1C(=O)O)CCN(C(=O)C1CCC1)C2)c1ccc2ccccc2c1 | 59.86%
58 | CCCc1ccc(C(=O)Nc2sc3c(c2C(=O)O)CCN(C(=O)c2ccccc2SC)C3)cc1 | 90.02%
59 | COc1ccc(OC)c(C(=O)N2CCc3c(sc(NC(=O)c4ccc5ccccc5c4)c3C(=O)O)C2)c1 | 86.36%
60 | O=C(Nc1sc2c(c1C(=O)O)CCN(C(=O)CCc1ccc(F)c(F)c1)C2)c1ccccc1Cl | 94.52%
61 | CSc1ncccc1C(=O)N1CCc2c(sc(NC(=O)c3ccc4ccccc4c3)c2C(=O)O)C1 | 64.54%
62 | CCCSc1ncccc1C(=O)N1CCc2c(sc(NC(=O)c3cccc(OC)c3)c2C(=O)O)C1 | 88.5%
63 | CCCCOc1ccc(C(=O)Nc2sc3c(c2C(=O)O)CCN(C(=O)CC)C3)cc1 | 65.64%
64 | CCCSc1ncccc1C(=O)N1CCc2c(sc(NC(=O)c3ccccc3Cl)c2C(=O)O)C1 | 94.82%
65 | CCOc1ncccc1C(=O)N1CCc2c(sc(NC(=O)c3ccc(Cl)cc3)c2C(=O)O)C1 | 79.31%
66 | O=C(Nc1sc2c(c1C(=O)O)CCN(C(=O)c1ccsc1)C2)c1ccccc1 | 93.59%
67 | CCC(C(=O)Nc1sc2c(c1C(=O)O)CCN(C(=O)c1cccc3ccccc13)C2)c1ccccc1 (stereo not drawn) | 62.49%
68 | COc1cc(Cl)ccc1C(=O)N1CCc2c(sc(NC(=O)c3c(F)cccc3F)c2C(=O)O)C1 | 59.98%
69 | O=C(CCC1CCCC1)Nc1sc2c(c1C(=O)O)CCN(C(=O)c1ccc(Cl)cc1)C2 | 66.09%
70 | CC(=O)Nc1cccc(C(=O)N2CCc3c(sc(NC(=O)c4ccccc4Cl)c3C(=O)O)C2)c1 | 72.75%
71 | O=C(Nc1sc2c(c1C(=O)O)CCN(C(=O)c1ccc(F)c(F)c1)C2)c1ccc(Cl)cc1 | 82.59%
72 | Cc1c(F)cccc1C(=O)N1CCc2c(sc(NC(=O)C3CCCCC3)c2C(=O)O)C1 | 63.92%
73 | CC(=O)Nc1ccc(C(=O)N2CCc3c(sc(NC(=O)c4ccccc4Cl)c3C(=O)O)C2)cc1 | 76.33%
74 | Cc1c(F)cccc1C(=O)N1CCc2c(sc(NC(=O)c3ccc4ccccc4c3)c2C(=O)O)C1 | 73.27%
75 | CC(C)C(=O)N1CCc2c(sc(NC(=O)c3ccc4ccccc4c3)c2C(=O)O)C1 | 65.78%
76 | O=C(O)c1c(NC(=O)C2CCCCC2)sc2c1CCN(C(=O)/C=C/c1ccc(Cl)cc1)C2 | 67.5%
77 | CCc1ccc(C(=O)Nc2sc3c(c2C(=O)O)CCN(C(=O)C2CCC2)C3)cc1 | 65.14%
78 | COc1cccc(C(=O)N2CCc3c(sc(NC(=O)c4ccc5ccccc5c4)c3C(=O)O)C2)c1OC | 64.54%
